According to US12187722B2, “Small molecule inhibitors of TEAD transcription factors” (The General Hospital Corporation, priority 2019, dated 2025):
Where “and” joins values, the source holds several entries; their conditions need not be identical. Identical values can stand only once. Like-named read-outs stand apart in the source and are kept apart here.

Assays:
TEAD2 [1] = target: T1, TEAD2 (Homo sapiens (Human), UniProt Q15562); assay: CMP assay (CPM fluorescence detection of free CoA); assay type: biochemical
Description: 7-Diethylamino-3-(4′-Maleimidylphenyl)-4-Methylcoumarin (CPM), which reacts with thiol of CoA liberated in the enzymatic reaction, and gives fluorescent signal (excitation ˜350-380, emission-460-480). The assay detects the product (free CoA) which is produced from palmitoyl-CoA as a method to detect the enzymatic activity. Test compounds that inhibit TEAD activity are therefore able to block the CMP fluorescent signal.
TEAD2/4 protein (10 μL of a 50 ng/μL solution) and a solution the test compound (0.5 μL, variable concentration) were pre-incubated for 30 min at r.t. A mixture prepared from MES pH 6.4 buffer (6.5 μL of a 50 mM solution), EDTA (1 μL of a 20 mM solution), palmitoyl-CoA (1 μL of a 20 μM solution), and 7-diethylamino-3-(4′-maleimidylphenyl)-4-methylcoumarin (1 μL of a 10 μM solution) was added and the resulting mixture was mixed well using a pipette. The solution was then incubated at r.t. for 30-120 min. in the dark, and fluorescence was detected at […] every 30 min. until the fluorescence signal is saturated. An IC50 for the ability of the compound to inhibit fluorescence is calculated from the results.

TEAD2 [2] = target: T1, TEAD2; assay: In vitro palmitoylation (TEAD2 autopalmitoylation, streptavidin blot); assay type: biochemical; details: compound at 10 μM
Outline: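 Recombinant GST- or His6-TEAD2 (500 ng) preincubated 15 min with compound, then 30 min with 1 μM alkyne palmitoyl-CoA; click-labelled with biotin-azide (1 h, RT). Streptavidin-HRP blot band intensity quantified after SDS-PAGE; inhibition of autopalmitoylation relative to DMSO control.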

[3] = Table 3, unit inferred, read-out: TEAD2 palmitoylation IC50
[4] = Table 2, read-out: IC50 μM (CMP assay)

T1 sequence (Q15562 whole entry): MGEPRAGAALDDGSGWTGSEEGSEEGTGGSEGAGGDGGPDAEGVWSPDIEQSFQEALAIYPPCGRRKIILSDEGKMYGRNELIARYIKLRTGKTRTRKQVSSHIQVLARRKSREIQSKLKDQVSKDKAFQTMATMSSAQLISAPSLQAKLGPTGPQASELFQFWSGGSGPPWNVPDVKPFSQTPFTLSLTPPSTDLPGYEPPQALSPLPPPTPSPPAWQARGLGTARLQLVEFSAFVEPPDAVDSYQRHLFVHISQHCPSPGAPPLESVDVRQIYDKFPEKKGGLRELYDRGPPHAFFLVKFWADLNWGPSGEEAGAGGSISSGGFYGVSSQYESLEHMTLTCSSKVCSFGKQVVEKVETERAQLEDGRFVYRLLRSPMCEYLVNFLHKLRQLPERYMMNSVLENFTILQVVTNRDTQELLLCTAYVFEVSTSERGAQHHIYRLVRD

Structure (SMILES) | IC50 (TEAD2 [1]; [3]) [µM] | inhibition at 10 µM (TEAD2 [2]; Table 3) [%] | inhibition at 10 µM (TEAD2 [2]; Table 2) [%] | also measured
C=CC(=O)c1ccccc1Nc1cccc(Nc2ccc(C34CC5CC(CC(C5)C3)C4)cc2)c1 | – | – | – | IC50 (TEAD2 [1]; CMP assay, read-out: CMP IC50): 5.09 µM; inhibition at 10 µM (TEAD2 [2]): 70%
COc1ccc(Nc2ccc(N(C)c3ccc(C(F)(F)F)cc3)cc2)c(C(=O)O)c1 [CP-521] | 1.45 | 93 | – | –
COc1ccc(Nc2ccc(N(C)c3ccc(C4CCCCC4)cc3)cc2)c(C(=O)O)c1 [CP-522] | 1.53 | 96 | – | –
COc1ccc(Nc2ccc(N(C)c3ccc(S(F)(F)(F)(F)F)cc3)cc2)c(C(=O)O)c1 [CP-528] | 0.38 | 76 | – | –
COc1ccc(Nc2ccc(N(C)c3ccc(C4CC5CCC4C5)cc3)cc2)c(C(=O)O)c1 (centres unmarked) [CP-538] | 0.68 | 85 | – | –
COc1ccc(Nc2ccc(N(C)c3ccc(OC(F)(F)F)cc3)cc2)c(C(=O)O)c1 [CP-548] | 0.45 | 86 | – | –
COc1ccc(Nc2ccc(N(C)c3ccc(C4CCCCC4)cc3)cc2F)c(C(=O)O)c1 [CP-549] | 2.4 | 85 | – | –
COc1ccc(Nc2ccc(N(C)c3ccc(C45CC6CC(CC(C6)C4)C5)cc3)cc2C)c(C(=O)O)c1 [CP-551] | 0.002 | 91 | – | –
COc1ccc(Nc2ccc(N(C)c3ccc(OCC(F)(F)F)cc3)cc2)c(C(=O)O)c1 [CP-553] | 0.59 | 100 | – | –
COc1ccc(Nc2ccc(N(C)c3ccc(C)cc3)cc2)c(C(=O)O)c1 [CP-554] | 0.01 | 96 | – | –
COc1ccc(Nc2ccc(N(C)c3ccc(N4CCCCC4)cc3)cc2)c(C(=O)O)c1 [CP-555] | 0.01 | 100 | – | –
COc1ccc(Nc2ccc(N(C)c3ccc(C4CCCCC4)cc3)cc2C)c(C(=O)O)c1 [CP-560] | 0.011 | 90 | – | –
COc1ccc(Nc2ccc(N(C)c3ccc(OCC(F)(F)F)cc3)cc2C)c(C(=O)O)c1 [CP-565] | 0.51 | 100 | – | –
O=C(O)c1ccccc1Nc1ccc(Oc2ccc(C3CCCCC3)cc2Cl)nc1 [CP-566] | 0.38 | 99 | – | –
COc1ccc(Nc2ccc(Oc3ccc(C45CC6CC(C)(CC(C)(C6)C4)C5)cc3Cl)cc2F)c(C(=O)O)c1 [CP-570] | 0.65 | 73 | – | –
COc1ccc(Nc2ccc(N(C)c3ccc(S(F)(F)(F)(F)F)cc3)cc2C)c(C(=O)O)c1 [CP-571] | 0.36 | 94 | – | –
COc1ccc(Nc2ccc(N(C)c3ccc(C4CCC(C)CC4)cc3)cc2)c(C(=O)O)c1 (centres unmarked) [CP-583] | 0.23 | – | – | % of inhibition of TEAD2 palmitoylation at 10 μM (TEAD2 [2]; Table 3): 96%
COc1ccc(Nc2ccc(N(C)c3ccc(C4CCC(C)CC4)cc3)cc2)c(C(=O)O)c1 (centres unmarked) [CP-584] | 0.21 | – | – | % of inhibition of TEAD2 palmitoylation at 10 μM (TEAD2 [2]; Table 3): 85%
COc1ccc(Nc2ccc(N(C)c3ccc(C4CC5CCC4C5)cc3)cc2F)c(C(=O)O)c1 (centres unmarked) [CP-585] | 0.32 | 86 | – | –
COc1ccc(Nc2ccc(N(C)c3ccc(OC(F)(F)F)cc3)cc2F)c(C(=O)O)c1 [CP-589] | 1.57 | 97 | – | –
COc1ccc(Nc2ccc(N(C)c3ccc(OC(F)(F)F)cc3)cc2C)c(C(=O)O)c1 [CP-590] | 0.22 | 96 | – | –
COc1ccc(Nc2ccc(N(C)c3ccc(C4CCC(C)(C)CC4)cc3)cc2)c(C(=O)O)c1 [CP-593] | 0.03 | 78 | – | –
COc1ccc(Nc2ccc(N(C)c3ccc(C4CCCCC4)cc3)nc2)c(C(=O)O)c1 [CP-598] | 0.05 | 74 | – | –
Cc1cc(N(C)c2ccc(C3CCCCC3)cc2)ccc1Nc1ccc(OC2CC2)cc1C(=O)O [CP-619] | 0.75 | 96 | – | –
COc1ccc(Nc2ccc(N(C)c3ccc(C4CCCCC4)cc3)cc2C2CC2)c(C(=O)O)c1 [CP-626] | 0.382 | 87 | – | –

Structure (SMILES) | IC50 (TEAD2 [1]; [3]) [µM] | inhibition at 10 µM (TEAD2 [2]; Table 3) [%] | inhibition at 10 µM (TEAD2 [2]; Table 2) [%] | also measured
O=C(O)c1ccccc1Nc1ccc(Nc2ccc(C34CC5CC(CC(C5)C3)C4)cc2Cl)cc1 [Compound 31] | – | – | 99 | IC50 (TEAD2 [1]; [4]): 0.377 µM; % of inhibition of TEAD2 palmitoylation at 10 μM (TEAD2 [2]; Table 2): 84% and 82%
O=C(O)c1cccc(Nc2ccc(Nc3ccc(C45CC6CC(CC(C6)C4)C5)cc3Cl)cc2)n1 [Compound 90] | – | – | 98 | IC50 (TEAD2 [1]; [4]): 0.446 µM
CN(c1ccc(N(C)c2ccccc2C(=O)O)cc1)c1ccc(C23CC4CC(CC(C4)C2)C3)cc1 [Compound 100] | – | – | 100 | IC50 (TEAD2 [1]; [4]): 0.207 µM
CN(c1ccc(N(C)c2ncccc2C(=O)O)cc1)c1ccc(C23CC4CC(CC(C4)C2)C3)cc1Cl [Compound 109] | – | – | 100 | IC50 (TEAD2 [1]; [4]): 0.346 µM
O=C(O)c1cccnc1Nc1cnn(Cc2ccc(C34CC5CC(CC(C5)C3)C4)cc2Cl)c1 [Compound 112] | – | – | 100 | IC50 (TEAD2 [1]; [4]): 0.268 µM
O=C(O)c1cccc(Nc2cc(Nc3ccc(C45CC6CC(CC(C6)C4)C5)cc3Cl)cc(C(F)(F)F)c2)n1 [Compound 119] | – | – | 100 | IC50 (TEAD2 [1]; [4]): 0.106 µM
CN(c1ccc(Nc2ccc(C34CC5CC(CC(C5)C3)C4)cc2Cl)cc1)c1ncccc1C(=O)O [Compound 125] | – | – | 96 | IC50 (TEAD2 [1]; [4]): 0.771 µM
CN(c1ccc(N(C)c2ncccc2C(=O)O)cc1)c1ccc(C23CC4CC(CC(C4)C2)C3)cc1 [Compound 139] | – | – | 95 | IC50 (TEAD2 [1]; [4]): 0.312 µM
CN(c1ccc(Oc2ccc(C34CC5CC(CC(C5)C3)C4)cc2Cl)cc1)c1ccccc1C(=O)O [Compound 168] | – | – | 97 | IC50 (TEAD2 [1]; [4]): 0.173 µM
CN(c1ccc(N(C)c2ccccc2C(=O)O)cc1)c1ccc(C23CC4CC(C)(CC(C)(C4)C2)C3)cc1 [Compound 178] | – | – | 100 | IC50 (TEAD2 [1]; [4]): 0.227 µM
COc1ccc(Nc2ccc(N(C)c3ccc(C45CC6CC(CC(C6)C4)C5)cc3)cc2)c(C(=O)O)c1 [Compound 250] | – | – | 89 | IC50 (TEAD2 [1]; [4]): 0.274 µM
O=C(O)c1ccccc1C(=O)Nc1ccc(Nc2ccc(C34CC5CC(CC(C5)C3)C4)cc2Cl)cc1 [compound 279] | – | – | 98 | –
NC1(C(=O)Nc2ccc(Nc3ccc(C45CC6CC(CC(C6)C4)C5)cc3Cl)cc2)CC1 [compound 280] | – | – | 17 | –
O=C(O)c1ccccc1Nc1cnc(Nc2ccc(C34CC5CC(CC(C5)C3)C4)cc2Cl)cn1 [compound 283] | – | – | 99 | –
O=C(O)c1ccccc1Nc1ncc(Nc2ccc(C34CC5CC(CC(C5)C3)C4)cc2Cl)cn1 [compound 284] | – | – | 14 | –
O=C(O)c1ccccc1C(=O)Nc1ccc(Nc2ccc(C34CC5CC(CC(C5)C3)C4)cc2Cl)cc1 [compound 286, 2-((4-(4-((3r,5r,7r)-adamantan-1-yl)-2-chlorophenyl)amino)phenyl)carbamoyl) benzoic acid] | – | – | – | % of inhibition of TEAD2 palmitoylation at 10 μM (TEAD2 [2]; Table 2, listed as 293): 86%
O=C(O)C1=C(C(=O)Nc2ccc(C34CC5CC(CC(C5)C3)C4)cc2)CCC1 [compound 289] | – | – | 88 | –
O=C(O)C1=C(C(=O)Nc2ccc(Nc3ccc(C45CC6CC(CC(C6)C4)C5)cc3Cl)cc2)CCC1 [compound 290] | – | – | 69 | –
O=C(O)c1ccccc1C(=O)Nc1cccc(Nc2ccc(C34CC5CC(CC(C5)C3)C4)cc2)c1 [compound 292] | – | – | 97 | –
COc1ccc(Nc2ccc(N(C)c3ccc(C(F)(F)F)cc3)cc2)c(C(N)=O)c1 [compound 429] | – | – | 47 | –
CNC(=O)c1cc(OC)ccc1Nc1ccc(N(C)c2ccc(C(F)(F)F)cc2)cc1 [compound 430] | – | – | 63 | –
COc1ccc(Nc2ccc(N(C)c3ccc(C(F)(F)F)cc3)cc2)c(C(=O)N(C)C)c1 [compound 431] | – | – | 37 | –
O=C(O)c1ccccc1Nc1cnc(Oc2ccc(C34CC5CC(CC(C5)C3)C4)cc2Cl)cn1 [compound 440] | – | – | 75 | –
O=C(O)c1ccccc1Nc1cnc(Oc2ccc(C3CCCCC3)cc2Cl)cn1 [compound 441] | – | – | 79 | –
